Source: publication PMC12604929, “Tumor-specific cytotoxicity of pyrazole-based chalcone derivatives in human oral squamous cell carcinoma cell lines” (Turkish Journal of Biology, 2025)
“Also recorded” adds a separate entry of the source. Where two headings read alike, the source gives them in different places.

Legend:
[1] = MTT cytotoxicity assay, HPLF; format: cell-based, human; settings: female, human, normal oral cells, average of three determinations
Description: (§2) The viable cell number was determined in triplicate by the MTT method, following the approach adopted in previous studies ([Nagai et al., 2018]; [Shi et al., 2018] ). Briefly, the cells were incubated for 2 h with 0.2 mg/mL of MTT, and the formed formazan was dissolved with 0.1 mL of DMSO to determine the relative viable cell number at 560 nm.
(§3) Cells were inoculated at 2×10^3 cells/0.1 ml in a 96-microwell plate. […] Cells were incubated further for 48 h and the relative viable cell number was then determined by the MTT method and expressed as the absorbance of the cell lysate at 560 nm, using a microplate reader (Infinite F50R; TECAN, Männedorf, Switzerland) [49, 50]. Control cells were treated with the same amounts of DMSO and the cell damage induced by DMSO was subtracted from that induced by test agents. The concentration of compound that reduced the viable cell number by 50% (CC50) was determined from the dose–response curve and the mean value of CC50 for each cell type was calculated from triplicate assays.
(§4) All of these cells were cultured at 37°C in DMEM supplemented with 10% heat-inactivated fetal bovine serum, 100 units/ml, penicillin G and 100 µg/ml streptomycin sulfate under a humidified 5% CO2 atmosphere.

[2] = MTT cytotoxicity, three normal oral cell types together (mean); format: cell-based, human; settings: female, human; mean of HGF, HPLF, HPC; read-out: CC50 normal oral cells mean (D)
Source text: (§1) Estimation of CC50 values. […] The mean pCC50 values for normal cells and tumor cell lines were defined as N and T, respectively.

[3] = test system: HSC-3 cells (OSCC, tongue); assay: MTT cytotoxicity assay, HSC-3; format: cell-based, human; settings: for CC50: OSCC, 48 h, MTT, average of three determinations; for increase of cytotoxicity against HSC-3 compared to MS4: relative to unsubstituted phenyl derivative MS4
Description: as §2, §3
(§5) Human oral squamous cell carcinoma (OSCC) cell lines [Ca9-22 (derived from gingival tissue); and HSC-2, HSC-3, HSC-4 (derived from tongue)] were purchased from Riken Cell Bank (Tsukuba, Japan). All of these cells were cultured at 37°C in DMEM supplemented with 10% heat-inactivated fetal bovine serum, 100 units/ml, penicillin G and 100 µg/ml streptomycin sulfate under a humidified 5% CO2 atmosphere. Cell morphology was checked periodically under a light microscope (EVOS FL; Thermo Fisher Scientific, Waltham, MA, USA).

[4] = test system: human OSCC cell lines (Ca9-22, HSC-2, HSC-3, HSC-4); assay: MTT cytotoxicity, four OSCC cell lines together (mean, TS, PSE, type of growth inhibition); format: cell-based; settings: for CC50: mean of Ca9-22, HSC-2, HSC-3, HSC-4, read-out: CC50 OSCC mean (B); for type of growth inhibition on the OSCC cell lines: from dose-response curves, Figure 4, cytostatic = without complete cytotoxicity, cytotoxic = complete cell death; for TS (D/B) tumor-selectivity index: mean CC50 normal cells / mean CC50 OSCC cell lines; for PSE (D/B^2)x100 potency-selectivity expression: three normal cell types vs four OSCC cell lines
Description: TS was calculated using the following equation: TS=mean CC50 against three normal oral cell types/mean CC50 against four OSCC cell lines (HGF, HPLF, HPC vs. Ca9-22, HSC-2, HSC-3, HSC-4). Since both Ca9-22 and HGF cells were derived from the gingival tissue, the relative sensitivity of these cells was also compared (as: CC50 against HGF/ CC50 against Ca9-22).
PSE was calculated by the following equation: PSE=mean CC50 against three normal oral cell types/(CC50 against four OSCC cell lines)2 × 100 (HGF, HPLF, HPC vs. Ca9-22, HSC-2, HSC-3, HSC-4); and as CC50 against HGF/(CC50 against Ca9-22)2 × 100 using the pair of cell types from the same tissue (gingiva) (see Table 1).
as §1

[5] = test system: HSC-4 cells (OSCC, tongue); assay: MTT cytotoxicity assay, HSC-4; format: cell-based, human; settings: average of three determinations
Description: as §2, §3, §5

[6] = MTT cytotoxicity assay, HGF; format: cell-based, human; settings: human, human gingival fibroblasts (HGF), normal oral cells, average of three determinations
Description: as §2, §3, §5

[7] = test system: Ca9-22 cells (OSCC, gingival tissue); assay: MTT cytotoxicity assay, Ca9-22; format: cell-based, human; settings: for TS (C/A) tumor-selectivity index: CC50 HGF / CC50 Ca9-22 (both gingival); for CC50: OSCC, 48 h, MTT, average of three determinations; for PSE (C/A^2)x100 potency-selectivity expression: HGF vs Ca9-22 (both gingival)
Description: as §2, §3, §5

HSC-2 cells = assay: Cell-cycle analysis (propidium iodide, cell sorting); format: cell-based, human; settings: HSC-2, 24 h; for subG1 cell population: control 1.9 %; for share of S-phase cells: control 15.6%; for share of G2+M phase cells: control 20.5%
Description: Cell-cycle analysis was performed following the process described in the literature ([Kantoh et al., 2010]; [Nagai et al., 2018]; [Shi et al., 2018]), details of which are presented in a supplementary file. Briefly, cells (approximately 10^6 in number) were fixed with paraformaldehyde in PBS(−) and treated with RNase A. After staining with propidium iodide in the presence of 0.01% Nonidet-40 to prevent cell aggregation, the cells were filtered through Falcon cell strainers and then subjected to cell sorting, analyzed with Cell Sorter Software (version 2.1.2) (SONY Imaging Products and Solution Inc., Kanagawa, Japan).
HSC-2 cells were incubated for 24 h with actinomycin D (Act.D) (positive control of apoptosis induction) or MS4, 7, or 8, or without treatment (control), and subjected to cell cycle analysis. […] D (1 μM) (p < 0.05) from 1.9 % to 12.5%. […] The cell cycle analysis was performed only with HSC-2 cells; therefore, experiments with other OSCC cell lines should be conducted to support the generalization of our findings.
Treated and untreated cells (approximately 10^6 cells) were harvested, fixed with 1% paraformaldehyde in PBS without calcium and magnesium ions [PBS(−)]. Fixed cells were then washed twice with PBS(−) and treated for 30 min with 400 μl of 0.2 mg/ml RNase A (preheated for 10 min at 100 °C to inactivate DNase) to degrade RNA. Cells were then washed twice with PBS(−) and stained for 15 min with 0.01% propidium iodide (PI) in the presence of 0.01% NP-40 in PBS(−) to prevent cell aggregation. After filtering through Falcon® cell strainers ([…]) (Corning, NY, USA) to remove aggregated cells, PI-stained cells were subjected to cell sorting (SH800 Series; SONY Imaging Products and Solutions Inc., Kanagawa, Japan). Cell-cycle analysis was performed with Cell Sorter Software version 2.1.2. (SONY Imaging Products and Solution Inc.).

[8] = MTT cytotoxicity assay, HPC; format: cell-based, human; settings: female, human, human pulp cells (HPC), normal oral cells, average of three determinations
Description: as §2, §3, §4

[9] = test system: HSC-2 cells (OSCC, tongue); assay: MTT cytotoxicity assay, HSC-2; settings: for CC50: read-out: CC50 HSC-2; for relative cytotoxicity against HSC-2: from CC50 values 1.1, 2.8, 3.6 μM
Description: as §2, §3, §5

HeLa cells = test system: HeLa cells; design: method as in El-Awady et al., 2011; settings: most resistant of five cancer cell lines; ref El-Awady et al., 2011; cited from earlier work
U251 cells = test system: U251 cells; design: method as in El-Awady et al., 2011; settings: most sensitive of five cancer cell lines; ref El-Awady et al., 2011; cited from earlier work
[10] = test system: periodontal ligament fibroblast (HPLF), normal oral cells; assay: MTT cytotoxicity assay, HPLF; format: cell-based, human; settings: 48 h, average of three determinations
Description: as §2, §3, §4

[11] = test system: human normal oral cells (HGF, HPLF, HPC); assay: MTT cytotoxicity, three normal oral cell types together (mean); format: cell-based; settings: mean of HGF, read-out: CC50 normal oral cells mean (D)
Source text: as §1

[12] = test system: gingival fibroblast (HGF), normal oral cells; assay: MTT cytotoxicity assay, HGF; format: cell-based, human; settings: 48 h, average of three determinations
Description: as §2, §3, §5

[13] = test system: pulp cells (HPC), normal oral cells; assay: MTT cytotoxicity assay, HPC; format: cell-based, human; settings: 48 h, average of three determinations
Description: as §2, §3, §4

## COc1cc(OC)c(C(=O)/C=C/c2cn(-c3ccc(S(N)(=O)=O)cc3)nc2-c2ccccc2)cc1OC [MS7, (E)-4-(4-(3-Oxo-3-(2,4,5-trimethoxyphenyl)prop-1-en-1-yl)-3-phenyl-1H-pyrazol-1-yl)benzenesulfonamide]
[1]
  CC50 at 48 h: > 400 µM
[2]
  CC50 at 48 h: > 400 µM
[3]; Homo sapiens, HSC-3
  CC50: 3.3 µM
[3]
  increase of cytotoxicity against HSC-3 compared to MS4: 1.5–2 times
[4]; Homo sapiens
  CC50: 2.7 µM
[4]
  type of growth inhibition on the OSCC cell lines: cytotoxic effects; also recorded: cytotoxic growth inhibition
  TS (D/B) tumor-selectivity index: >148.7
  PSE (D/B^2)x100 potency-selectivity expression: > 5531
[5]; Homo sapiens, HSC-4, 48 h
  CC50: 3 µM
[6]
  CC50 at 48 h: > 400 µM
[7]
  TS (C/A) tumor-selectivity index: >247.4
[7]; Homo sapiens, Ca9-22
  CC50: 1.6 µM
[7]; relative to reference compound 5-FU
  times more cytotoxic towards Ca9-22 than 5-FU: 20.6 times
HSC-2 cells
  effect on cell cycle distribution: increased the cell population in the S and G2/M phases
HSC-2 cells; 5.6 μM
  subG1 cell population: 1.0%
HSC-2 cells; 11.2 μM
  subG1 cell population: 1.3%
HSC-2 cells; concentration not given
  share of S-phase cells: 20.6%
  share of G2+M phase cells: 35.0%
HSC-2 cells; control 63.2%, concentration not given
  G1 phase cells: 44.5%
HSC-2 cells; listed as 7
  effect on cell cycle distribution: induced G2+M arrest
[8]
  CC50 at 48 h: > 400 µM
[9]; Homo sapiens, HSC-2, 48 h
  CC50: 2.8 µM
[9]
  relative cytotoxicity against HSC-2: 1.3 fold

## COc1cc(C(=O)/C=C/c2cn(-c3ccc(S(N)(=O)=O)cc3)nc2-c2ccccc2)cc(OC)c1OC [MS8, (E)-4-(4-(3-Oxo-3-(3,4,5-trimethoxyphenyl)prop-1-en-1-yl)-3-phenyl-1H-pyrazol-1-yl)benzenesulfonamide]
[1]
  CC50 at 48 h: 340 µM
[2]
  CC50 at 48 h: > 380 µM
[3]; Homo sapiens, HSC-3
  CC50: 4 µM
[3]
  increase of cytotoxicity against HSC-3 compared to MS4: 1.5–2 times
[4]; Homo sapiens
  CC50: 3.3 µM
[4]
  type of growth inhibition on the OSCC cell lines: cytotoxic effects; also recorded: cytotoxic growth inhibition
  TS (D/B) tumor-selectivity index: >113.5
  PSE (D/B^2)x100 potency-selectivity expression: > 3389
[5]; Homo sapiens, HSC-4, 48 h
  CC50: 3.5 µM
[6]
  CC50 at 48 h: > 400 µM
[7]
  TS (C/A) tumor-selectivity index: >169.0
  PSE (C/A^2)x100 potency-selectivity expression: > 7141
[7]; Homo sapiens, Ca9-22
  CC50: 2.4 µM
HSC-2 cells
  effect on cell cycle distribution: increased the cell population in the S and G2/M phases
HSC-2 cells; 7.2 μM
  subG1 cell population: 1.3%
HSC-2 cells; concentration not given
  share of S-phase cells: 21.2%
  share of G2+M phase cells: 35.4%
HSC-2 cells; listed as 8
  effect on cell cycle distribution: induced G2+M arrest
[8]
  CC50 at 48 h: > 400 µM
[9]; Homo sapiens, HSC-2, 48 h
  CC50: 3.6 µM

## Cc1ccc(-c2cc(C(F)(F)F)nn2-c2ccc(S(N)(=O)=O)cc2)cc1 [celecoxib]
HeLa cells
  IC50: 37.2 µM
U251 cells
  IC50: 11.7 µM

## NS(=O)(=O)c1ccc(-n2cc(/C=C/C(=O)c3ccccc3)c(-c3ccccc3)n2)cc1 [MS4, (E)-4-(4-(3-Oxo-3-phenylprop-1-en-1-yl)-3-phenyl-1H-pyrazol-1 yl) benzenesulfonamide]
[10]
  CC50: > 400 µM
[11]
  CC50: > 384 µM
[3]
  CC50: 5.2 µM
[4]
  type of growth inhibition on the OSCC cell lines: cytostatic effects; also recorded: cytostatic growth inhibition
  TS (D/B) tumor-selectivity index: >103.7
  CC50: 3.7 µM
  PSE (D/B^2)x100 potency-selectivity expression: > 2800
[5]; 48 h
  CC50: 3.5 µM
[12]
  CC50: 351 µM
[7]
  TS (C/A) tumor-selectivity index: 71.2
  PSE (C/A^2)x100 potency-selectivity expression: > 1444
  CC50: 4.9 µM
HSC-2 cells
  effect on cell cycle distribution: increased the cell population in the S and G2/M phases; also recorded: only slightly induced such changes in cell cycle distribution; also recorded: induced G2+M arrest
HSC-2 cells; 2.2 μM
  subG1 cell population: 2.0%
[13]
  CC50: > 400 µM
[9]
  relative cytotoxicity against HSC-2: 3.3 fold
[9]; OSCC, 48 h, MTT, average of three determinations
  CC50: 1.1 µM
